In US9580390B2, “Indazole compounds as kinase inhibitors and method of treating cancer with same” (University Health Network, priority 2011, dated 2017):

Legend:
human TTK = target: T1, human TTK (Homo sapiens, UniProt P33981); test: TTK inhibition assay (indirect ELISA); assay type: biochemical; details: read-out: TTK IC50 Range
T1 construct: amino terminal GST fusion of full length human TTK; purchased Invitrogen
T1 sequence (P33981 1-857): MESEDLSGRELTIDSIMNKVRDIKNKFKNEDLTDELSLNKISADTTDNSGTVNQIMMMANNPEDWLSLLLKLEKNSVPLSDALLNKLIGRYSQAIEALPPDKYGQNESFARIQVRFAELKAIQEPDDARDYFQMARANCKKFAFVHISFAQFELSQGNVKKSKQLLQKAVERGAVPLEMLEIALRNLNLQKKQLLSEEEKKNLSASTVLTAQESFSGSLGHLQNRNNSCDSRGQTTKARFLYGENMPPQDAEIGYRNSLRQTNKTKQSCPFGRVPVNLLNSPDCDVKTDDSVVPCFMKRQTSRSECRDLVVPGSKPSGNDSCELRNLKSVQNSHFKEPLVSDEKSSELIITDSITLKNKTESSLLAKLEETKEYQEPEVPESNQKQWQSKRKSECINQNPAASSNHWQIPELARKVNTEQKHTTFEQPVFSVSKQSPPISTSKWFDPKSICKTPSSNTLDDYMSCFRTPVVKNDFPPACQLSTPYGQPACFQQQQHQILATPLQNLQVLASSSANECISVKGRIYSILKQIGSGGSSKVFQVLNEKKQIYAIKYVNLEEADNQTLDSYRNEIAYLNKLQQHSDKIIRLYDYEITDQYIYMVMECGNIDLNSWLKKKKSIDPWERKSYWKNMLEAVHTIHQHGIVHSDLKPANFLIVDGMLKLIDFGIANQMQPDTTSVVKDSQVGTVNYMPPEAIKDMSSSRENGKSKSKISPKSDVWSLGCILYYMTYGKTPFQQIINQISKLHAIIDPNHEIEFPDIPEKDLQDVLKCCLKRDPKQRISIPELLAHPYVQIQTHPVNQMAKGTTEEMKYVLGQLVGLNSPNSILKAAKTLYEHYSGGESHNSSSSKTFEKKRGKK

Breast cancer cells = test: Cancer cell line growth inhibition (SRB assay); assay type: cell-based; details: Homo sapiens; MDA-MB-468; read-out: Cancer Cell Line GI50 Range MDA-MB-468
[1] = tested on: colon cancer cells (HCT116); test: Cancer cell line growth inhibition (SRB assay); assay type: cell-based; details: Homo sapiens, HCT-116; read-out: Cancer Cell Line GI50 Range HCT116
[2] = tested on: ovarian cancer cells (PA-1); test: Cancer cell line growth inhibition (SRB assay); assay type: cell-based; details: Homo sapiens, PA-1; read-out: Cancer Cell Line GI50 Range PA-1

SMILES | IC50 (human TTK) [µM] | GI50 (Breast cancer cells) [µM] | GI50 [1] [µM] | GI50 [2] [µM]
O=CN1CCC2(CC1)CC(=O)c1cc(-c3n[nH]c4ccc(C(=O)N[C@H](c5ccccn5)C5CC5)cc34)ccc1O2 [Example A263, (S)-N-(cyclopropyl(pyridin-2-yl)methyl)-3-(1′-formyl-4-oxospiro[chroman-2,4′-piperidin]-6-yl)-1H-indazole-5-carboxamide] | < 0.1 | 0.1 to 0.5 | 0.1 to 0.5 | < 0.1
O=C(N[C@@H](c1ccccc1F)C1CC1)c1ccc2[nH]nc(-c3ccc(N4CCN(C5COC5)CC4)cc3)c2c1 [Example A270, (R)-N-(cyclopropyl(2-fluorophenyl)methyl)-3-(4-(4-(oxelan-3-yl)piperazin-1-yl)phenyl)-1H-indazole-5-carboxamide] | < 0.1 | 0.1 to 0.5 | < 0.1 | < 0.1
O=C(N[C@H](c1ccccn1)C1CC1)c1cc2c(-c3ccc(N4C5CCC4CC(O)C5)cc3)n[nH]c2cc1F (stereo partly drawn) [Example A271, N-((S)-cyclopropyl(pyridin-2-yl)methyl)-6-fluoro-3-(4-((1R,3R,5S)-3-hydroxy-8-azabicyclo[3.2.1]octan-8-yl)phenyl)-1H-indazole-5-carboxamide] | < 0.1 | > 0.5 | > 0.5 | 0.1 to 0.5
O=C(N[C@H](c1ccccn1)C1CC1)c1cc2c(-c3ccc(N4[C@@H]5CC[C@H]4COC5)cc3)n[nH]c2cc1F [Example A272, 3-(4-((1R,5S)-3-oxa-8-azabicyclo[3.2.1]octan-8-yl)phenyl)-N-((S)-cyclopropyl(pyridin-2-yl)methyl)-6-fluoro-1H-indazole-5-carboxamide] | < 0.1 | > 0.5 | 0.1 to 0.5 | 0.1 to 0.5
CC(C)C[C@H](NC(=O)c1ccc2[nH]nc(-c3ccc(N4CC(N5CCOCC5)C4)cc3)c2c1)c1ccccc1F [Example A276, (S)-N-(1-(2-fluorophenyl)-3-methylbutyl)-3-(4-(3-morpholinoazetidin-1-yl)phenyl)-1H-indazole-5-carboxamide] | < 0.1 | 0.1 to 0.5 | < 0.1 | < 0.1
CC(C)C(NC(=O)c1ccc2[nH]nc(-c3ccc(O[C@H]4C[C@H]5CC[C@@H](C4)N5C)cc3)c2c1)c1ccccc1F (stereo partly drawn) [Example A281, N-(1-(2-fluorophenyl)-2-methylpropyl)-3-(4-(((1R,3R,5S)-8-methyl-8-azabicyclo[3.2.1]octan-3-yl)oxy)phenyl)-1H-indazole-5-carboxamide] | < 0.1 | 0.1 to 0.5 | < 0.1 | < 0.1
CN1[C@@H]2CC[C@H]1C[C@@H](Oc1ccc(-c3n[nH]c4ccc(C(=O)NC(c5ccccc5Cl)C5CCCC5)cc34)cc1)C2 (stereo partly drawn) [Example A284, N-((2-chlorophenyl)(cyclopentyl)methyl)-3-(4-(((1R,3R,5S)-8-methyl-8-azabicyclo[3.2.1]octan-3-yl)oxy)phenyl)-1H-indazole-5-carboxamide] | < 0.1 | 0.1 to 0.5 | 0.1 to 0.5 | 0.1 to 0.5
CN1[C@@H]2CC[C@H]1C[C@H](Oc1ccc(-c3n[nH]c4ccc(C(=O)NC(c5ccccc5)C5CC5)cc34)cc1)C2 (stereo partly drawn) [Example A286, N-(cyclopropyl(phenyl)methyl)-3-(4-(((1R,3S,5S)-8-methyl-8-azabicyclo[3.2.1]octan-3-yl)oxy)phenyl)-1H-indazole-5-carboxamide] | < 0.1 | < 0.1 | < 0.1 | < 0.1
CC(C)C(NC(=O)c1ccc2[nH]nc(-c3ccc(OC4CN(C)C4)cc3)c2c1)c1ccccc1Cl (centres unmarked) [Example A289, N-(1-(2-chlorophenyl)-2-methylpropyl)-3-(4-((1-methylazetidin-3-yl)oxy)phenyl)-1H-indazole-5-carboxamide] | < 0.1 | > 0.5 | 0.1 to 0.5 | 0.1 to 0.5
CCC(CC)C(NC(=O)c1ccc2[nH]nc(-c3ccc(OC4CCN(C5COC5)CC4)cc3)c2c1)c1ccccn1 (centres unmarked) [Example A292, N-(2-ethyl-1-(pyridin-2-yl)butyl)-3-(4-((1-(oxetan-3-yl)piperidin-4-yl)oxy)phenyl)-1H-indazole-5-carboxamide] | < 0.1 | < 0.1 | < 0.1 | < 0.1
CN1CC(Oc2ccc(-c3n[nH]c4ccc(C(=O)N[C@H](c5ccccn5)C5CCCC5)cc34)cc2)C1 [Example A295, (S)-N-(cyclopentyl(pyridin-2-yl)methyl)-3-(4-((1-methylazetidin-3-yl)oxy)phenyl)-1H-indazole-5-carboxamide] | < 0.1 | 0.1 to 0.5 | < 0.1 | < 0.1
CC(C)C[C@H](NC(=O)c1ccc2[nH]nc(-c3ccc(N4C5CCCC4CC(O)C5)cc3)c2c1)c1ccccn1 (stereo partly drawn) [Example A304, 3-(4-((1R,3S,5S)-3-hydroxy-9-azabicyclo[3.3.1]nonan-9-yl)phenyl)-N-((S)-3-methyl-1-(pyridin-2-yl)butyl)-1H-indazole-5-carboxamide] | < 0.1 | 0.1 to 0.5 | 0.1 to 0.5 | 0.1 to 0.5
O=C(N[C@@H](c1ncccn1)C1CCCC1)c1ccc2[nH]nc(-c3ccc(N4CC(C5COC5)C4)cc3)c2c1 [Example A312, (R)-N-(cyclopentyl(pyrimidin-2-yl)methyl)-3-(4-(3-(oxetan-3-yl)azetidin-1-yl)phenyl)-1H-indazole-5-carboxamide] | < 0.1 | < 0.1 | < 0.1 | < 0.1
O=C(N[C@@H](c1ccccn1)C1CC1)c1ccc2[nH]nc(-c3ccc(N4CC(N5CCOCC5)C4)cc3)c2c1 [Example A316, (R)-N-(cyclopropyl(pyridin-2-yl)methyl)-3-(4-(3-morpholinoazetidin-1-yl)phenyl)-1H-indazole-5-carboxamide] | < 0.1 | 0.1 to 0.5 | 0.1 to 0.5 | 0.1 to 0.5
CC(C)[C@@H](NC(=O)c1ccc2[nH]nc(-c3ccc(N4CC(N5CCOCC5)C4)cc3)c2c1)c1ccccc1Cl [Example A317, (R)-N-(1-(2-chlorophenyl)-2-methylpropyl)-3-(4-(3-morpholinoazetidin-1-yl)phenyl)-1H-indazole-5-carboxamide] | < 0.1 | 0.1 to 0.5 | 0.1 to 0.5 | < 0.1
CC(C)C(NC(=O)c1ccc2[nH]nc(-c3ccc(O[C@H]4C[C@H]5CC[C@@H](C4)N5C4COC4)cc3)c2c1)c1ccccc1Cl (stereo partly drawn) [Example A324, N-(1-(2-chlorophenyl)-2-methylpropyl)-3-(4-(((1R,3R,5S)-8-(oxetan-3-yl)-8-azabicyclo[3.2.1]octan-3-yl)oxy)phenyl)-1H-indazole-5-carboxamide] | < 0.1 | 0.1 to 0.5 | 0.1 to 0.5 | 0.1 to 0.5
CC(C)CC(NC(=O)c1ccc2[nH]nc(-c3ccc(O[C@H]4C[C@H]5CC[C@@H](C4)N5C4COC4)cc3)c2c1)c1ccccc1 (stereo partly drawn) [Example A338, N-(3-methyl-1-phenylbutyl)-3-(4-(((1R,3R,5S)-8-(oxetan-3-yl)-8-azabicyclo[3.2.1]octan-3-yl)oxy)phenyl)-1H-indazole-5-carboxamide] | < 0.1 | 0.1 to 0.5 | 0.1 to 0.5 | 0.1 to 0.5
CC(C)CC(NC(=O)c1ccc2[nH]nc(-c3ccc(O[C@H]4C[C@H]5CC[C@@H](C4)N5C=O)cc3)c2c1)c1ccccc1 (stereo partly drawn) [Example A340, 3-(4-(((1R,3R,5S)-8-formyl-8-azabicyclo[3.2.1]octan-3-yl)oxy)phenyl)-N-(3-methyl-1-phenylbutyl)-1H-indazole-5-carboxamide] | < 0.1 | 0.1 to 0.5 | 0.1 to 0.5 | < 0.1
CCC(CC)C(NC(=O)c1ccc2[nH]nc(-c3ccc(O[C@H]4C[C@H]5CC[C@@H](C4)N5C4COC4)cc3)c2c1)c1ccccn1 (stereo partly drawn) [Example A341, N-(2-ethyl-1-(pyridin-2-yl)butyl)-3-(4-(((1R,3R,5S)-8-(oxetan-3-yl)-8-azabicyclo[3.2.1]octan-3-yl)oxy)phenyl)-1H-indazole-5-carboxamide] | < 0.1 | 0.1 to 0.5 | 0.1 to 0.5 | 0.1 to 0.5
CCC[C@H](NC(=O)c1ccc2[nH]nc(-c3ccc(OC4CC5CCC(C4)N5C4COC4)cc3)c2c1)c1ccccc1 (stereo partly drawn) [Example A344, 3-(4-(((1R,3R,5S)-8-(oxetan-3-yl)-8-azabicyclo[3.2.1]octan-3-yl)oxy)phenyl)-N-((S)-1-phenylbutyl)-1H-indazole-5-carboxamide] | < 0.1 | > 0.5 | > 0.5 | 0.1 to 0.5
